Legend:
[1] = biological target: T1, human DP1 receptor (Homo sapiens, UniProt Q13258); experiment: DP1 radioligand membrane binding assay ([3H]BWA868C); details: human platelet membranes, 2 nM [3H]BWA868C; read-out: hDP1
T1 construct: tissue Biological Specialty Corporation; host or cells: human platelets, membrane preparation
T1 sequence (Q13258 1-359): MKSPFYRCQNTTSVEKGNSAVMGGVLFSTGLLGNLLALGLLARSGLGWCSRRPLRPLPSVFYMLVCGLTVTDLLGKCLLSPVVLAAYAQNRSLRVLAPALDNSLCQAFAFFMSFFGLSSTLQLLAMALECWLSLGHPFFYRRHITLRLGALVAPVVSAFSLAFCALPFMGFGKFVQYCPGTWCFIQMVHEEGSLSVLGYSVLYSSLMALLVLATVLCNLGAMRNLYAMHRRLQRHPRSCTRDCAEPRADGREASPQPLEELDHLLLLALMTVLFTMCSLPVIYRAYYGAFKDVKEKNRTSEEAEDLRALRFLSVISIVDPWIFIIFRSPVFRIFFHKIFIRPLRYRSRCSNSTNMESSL
Method: The ability of a compound to bind to the human DP1 receptor was evaluated via a radioligand membrane binding assay using the DP1 selective synthetic ligand [^3H]BWA868C. Packed human platelets (Biological Specialty Corporation), were resuspended in 6 volumes of Hepes/HBSS buffer (10 mM Hepes, 1 mM DTT in Hanks Balanced Salt Solution (HBSS), lysed and centrifuged at 75,000×g to pellet the membranes. Membranes were resuspended in Hepes/HBSS buffer to approximately 12 mg protein/ml. Membranes (20 μg protein/well) are incubated in 96-well plates with 2 nM [^3H]BWA868C and test compound in Assay Buffer (50 mM Hepes, 10 mM MnCl2, 1 mM EDTA, plus or minus 0.2% human serum albumin, pH 7.4) for 60 minutes at room temperature. The reactions are terminated by rapid filtration through Whatman GF/C glass fibre filter plates. The filter plates were pre-soaked in 0.33% polyethylenimine for 30 minutes at room temperature then washed in Wash Buffer (50 mM Hepes, 0.5 M NaCl pH 7.4) prior to harvesting. After harvesting, the filter plates are washed 3 times with 1 ml cold Wash Buffer then dried. Scintillant is then added to the plates and the radioactivity retained on the filters is determined on a Packard TopCount (Perkin Elmer). Specific binding is determined as total radioactive binding minus non-specific binding in the presence of 10 μM BW A868C. IC50s were determined using GraphPad prism analysis of drug titration curves.

[2] = biological target: T2, human DP2 receptor (Homo sapiens, UniProt Q9Y5Y4); experiment: DP2/CRTH2 radioligand binding assay ([3H]PGD2); details: membranes of HEK293 cells expressing recombinant human DP2, 1 nM [3H]PGD2; read-out: hDP2
T2 construct: expressed in transfected cells
T2 sequence (Q9Y5Y4 1-395): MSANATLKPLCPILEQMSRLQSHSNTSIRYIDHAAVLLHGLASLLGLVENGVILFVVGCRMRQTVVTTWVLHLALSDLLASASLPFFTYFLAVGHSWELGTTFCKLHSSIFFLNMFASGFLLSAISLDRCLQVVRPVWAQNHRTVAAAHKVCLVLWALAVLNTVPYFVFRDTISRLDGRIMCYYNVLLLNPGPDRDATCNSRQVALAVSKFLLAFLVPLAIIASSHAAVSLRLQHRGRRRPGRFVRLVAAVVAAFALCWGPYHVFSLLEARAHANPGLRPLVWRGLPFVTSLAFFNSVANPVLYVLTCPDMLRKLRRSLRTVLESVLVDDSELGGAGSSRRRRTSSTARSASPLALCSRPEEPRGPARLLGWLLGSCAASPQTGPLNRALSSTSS
Method: The ability of a compound to bind to the human DP2 receptor is assessed via a radioligand binding assay using [^3H]PGD2. HEK293 cells stably expressing recombinant human DP2 are resuspended in 10 mM Hepes, 7.4 containing 1 mM DTT, lysed and centrifuged at 75,000×g to pellet the membranes. The membranes are resuspended in 10 mM Hepes, 7.4 containing 1 mM DTF and 10% glycerol to approximately 5 mg protein/ml. Membranes (2-10 […]) are incubated in 96-well plates with 1 nM [^3H]PGD2 and test compound in Assay Buffer (50 mM Hepes, 10 mM MnCl2, 1 mM EDTA, plus or minus 0.2% human serum albumin, pH 7.4) for 60 minutes at room temperature. The reactions are terminated by rapid filtration through Whatman GF/C glass fibre filter plates. The filter plates were pre-soaked in 0.33% polythylenimine for 30 minutes at room temperature then washed in Wash Buffer (50 mM Hepes, 0.5 M NaCl pH 7.4) prior to harvesting. After harvesting, the filter plates are washed 3 times with 1 ml cold Wash Buffer then dried. Scintillant is then added to the plates and the radioactivity retained on the filters is determined on a Packard TopCount (Perkin Elmer). Specific binding is determined as total radioactive binding minus non-specific binding in the presence of 10 μM PGD2. IC50s were determined using GraphPad prism analysis of drug titration curves.

| Structure (SMILES) | IC50 [1] | IC50 [2] |
| --- | --- | --- |
| COc1ccc(CC(=O)O)cc1Oc1ccc(C(F)(F)F)cc1CSCCc1ccccc1 [Compound 1-1, [4-Methoxy-3-(2-phenethylsulfanylmethyl-4-trifluoromethyl-phenoxy)-phenyl]-acetic acid] | > 1 µM | < 0.3 µM |
| COc1ccc(CC(=O)O)cc1Oc1ccc(C(F)(F)F)cc1CS(=O)(=O)c1ccccc1 [Compound 1-7, [3-(2-Benzenesulfonylmethyl-4-trifluoromethyl-phenoxy)-4-methoxy-phenyl]-acetic acid] | > 1 µM | 0.3 to 1 µM |
| COc1ccc(CC(=O)O)cc1Oc1ccc(C(F)(F)F)cc1C[S+]([O-])CCc1ccccc1 (centres unmarked) [Compound 1-8, {4-Methoxy-3-[2-(2-phenyl-ethanesulfinylmethyl)-4-trifluoromethyl-phenoxy]-phenyl}-acetic acid] | > 1 µM | < 0.3 µM |
| COc1ccc(CC(=O)O)cc1Oc1ccc(C(F)(F)F)cc1C[S+]([O-])C(C)(C)C (centres unmarked) [Compound 1-9, {4-Methoxy-3-[2-(2-methyl-propane-2-sulfinylmethyl)-4-trifluoromethyl-phenoxy]-phenyl}-acetic acid] | > 1 µM | > 1 µM |
| COc1ccc(CC(=O)O)cc1Oc1ccc(C(F)(F)F)cc1C[S+]([O-])c1ccccc1 (centres unmarked) [Compound 1-10, [3-(2-Benzenesulfinylmethyl-4-trifluoromethyl-phenoxy)-4-methoxy-phenyl]-acetic acid] | > 1 µM | < 0.3 µM |
| O=C(O)Cc1cccc(Oc2ccc(Br)cc2CSc2ccccc2)c1 [Compound 1-11, [3-(4-Bromo-2-phenylsulfanylmethyl-phenoxy)-phenyl]-acetic acid] | 0.3 to 1 µM | < 0.3 µM |
| O=C(O)Cc1cccc(Oc2ccc(Br)cc2CSCc2ccccc2)c1 [Compound 1-12, [3-(2-Benzylsulfanylmethyl-4-bromo-phenoxy)-phenyl]-acetic acid] | < 0.3 µM | < 0.3 µM |
| Cc1nnc(SCc2cc(Br)ccc2Oc2cccc(CC(=O)O)c2)s1 [Compound 1-15, {3-[4-Bromo-2-(5-methyl-[1,3,4]thiadiazol-2-ylsulfanylmethyl)-phenoxy]-phenyl}-acetic acid] | > 1 µM | < 0.3 µM |
| O=C(O)Cc1cccc(Oc2ccc(Br)cc2CSc2ccc3ccccc3n2)c1 [Compound 1-16, {3-[4-Bromo-2-(quinolin-2-ylsulfanylmethyl)-phenoxy]-phenyl}-acetic acid] | 0.3 to 1 µM | 0.3 to 1 µM |
| CN(C)CCSCc1cc(Br)ccc1Oc1cccc(CC(=O)O)c1 [Compound 1-18, {3-[4-Bromo-2-(2-dimethylamino-ethylsulfanylmethyl)-phenoxy]-phenyl}-acetic acid] | > 1 µM | > 1 µM |
| COc1ccc(CC(=O)O)cc1Oc1ccc(NC(=O)C(C)(C)C)cc1COc1ccccc1 [Compound 1-118, {3-[4-(2,2-Dimethyl-propionylamino)-2-phenoxymethyl-phenoxy]-4-methoxy-phenyl}-acetic acid] |  | 0.3 to 1 µM |
| COc1ccc(CC(=O)O)cc1Oc1ccc(NS(=O)(=O)c2cccc3c(N(C)C)cccc23)cc1CSC(C)(C)C [Compound 1-119, {3-[2-tert-Butylsulfanylmethyl-4-(5-dimethylamino-naphthalene-1-sulfonylamino)-phenoxy]-4-methoxy-phenyl}-acetic acid] |  | < 0.3 µM |

Results, then the compound that gave them:

| IC50 [1] | IC50 [2] | Structure (SMILES) |
| --- | --- | --- |
| > 1 µM | < 0.3 µM | COc1ccc(CC(=O)O)cc1Oc1ccc(C(F)(F)F)cc1CSCC(F)(F)F [Compound 1-2, {4-Methoxy-3-[2-(2,2,2-trifluoro-ethylsulfanylmethyl)-4-trifluoromethyl-phenoxy]-phenyl}-acetic acid] |
| > 1 µM | 0.3 to 1 µM | COc1ccc(CC(=O)O)cc1Oc1ccc(C(F)(F)F)cc1CSC(C)(C)C [Compound 1-3, [3-(2-tert-Butylsulfanylmethyl-4-trifluoromethyl-phenoxy)-4-methoxy-phenyl]-acetic acid] |
| > 1 µM | < 0.3 µM | COc1ccc(CC(=O)O)cc1Oc1ccc(C(F)(F)F)cc1CSc1ccccc1 [Compound 1-4, [4-Methoxy-3-(2-phenylsulfanylmethyl-4-trifluoromethyl-phenoxy)-phenyl]-acetic acid] |
| > 1 µM | < 0.3 µM | COc1ccc(CC(=O)O)cc1Oc1ccc(C(F)(F)F)cc1CS(=O)(=O)CCc1ccccc1 [Compound 1-5, {4-Methoxy-3-[2-(2-phenyl-ethanesulfonylmethyl)-4-trifluoromethyl-phenoxy]-phenyl}-acetic acid] |
| > 1 µM | > 1 µM | COc1ccc(CC(=O)O)cc1Oc1ccc(C(F)(F)F)cc1CS(=O)(=O)C(C)(C)C [Compound 1-6, {4-Methoxy-3-[2-(2-methyl-propane-2-sulfonylmethyl)-4-trifluoromethyl-phenoxy]-phenyl}-acetic acid] |
| < 0.3 µM | < 0.3 µM | O=C(O)Cc1cccc(Oc2ccc(Br)cc2CSCCc2ccccc2)c1 [Compound 1-13, [3-(4-Bromo-2-phenethylsulfanylmethyl-phenoxy)-phenyl]-acetic acid] |
| 0.3 to 1 µM | < 0.3 µM | O=C(O)Cc1cccc(Oc2ccc(Br)cc2CSc2nccs2)c1 [Compound 1-14, {3-[4-Bromo-2-(thiazol-2-ylsulfanylmethyl)-phenoxy]-phenyl}-acetic acid] |
| 0.3 to 1 µM | 0.3 to 1 µM | O=C(O)Cc1cccc(Oc2ccc(Br)cc2CSc2ccccn2)c1 [Compound 1-17, {3-[4-Bromo-2-(pyridin-2-ylsulfanylmethyl)-phenoxy]-phenyl}-acetic acid] |
| > 1 µM | > 1 µM | O=C(O)CSCc1cc(Br)ccc1Oc1cccc(CC(=O)O)c1 [Compound 1-19, [3-(4-Bromo-2-carboxymethylsulfanylmethyl-phenoxy)-phenyl]-acetic acid] |
|  | < 0.3 µM | COc1ccc(CC(=O)O)cc1Oc1ccc(-c2cnn(C)c2)cc1CSC(C)C [Compound 1-63, {3-[2-Isopropylsulfanylmethyl-4-(1-methyl-1H-pyrazol-4-yl)-phenoxy]-4-methoxy-phenyl}-acetic acid] |
|  | 0.3 to 1 µM | COc1ccc(CC(=O)O)cc1Oc1ccc(-c2cnn(C)c2)cc1CS(=O)(=O)C(C)C [Compound 1-64, {4-Methoxy-3-[4-(1-methyl-1H-pyrazol-4-yl)-2-(propane-2-sulfonylmethyl)-phenoxy]-phenyl}-acetic acid] |
|  | < 0.3 µM | COc1ccc(CC(=O)O)cc1Oc1ccc(C(=O)c2ccccc2)cc1CSC(C)C [Compound 1-83, [3-(4-Benzoyl-2-isopropylsulfanylmethyl-phenoxy)-4-methoxy-phenyl]-acetic acid] |
|  | < 0.3 µM | COc1ccc(CC(=O)O)cc1Cc1ccc(NC(=O)C(C)(C)C)cc1CSC(C)(C)C [Compound 1-107, {3-[2-tert-Butylsulfanylmethyl-4-(2,2-dimethyl-propionylamino)-benzyl]-4-methoxy-phenyl}-acetic acid] |
